Earlier results as cited in paper PMC4726456 (Cell, 2014).

Key:
cellular microtubules = settings: ref Piperno et al., 1987; Takemura et al., 1992
tubulin = settings: ref Mulder et al., 2009

| Compound | Effect on microtubule acetylation levels in cells (cellular microtubules) | Induction of tubulin rings (tubulin) |
| --- | --- | --- |
| CC(=O)O[C@H]1C(=O)[C@@]2(C)[C@H]([C@H](OC(=O)c3ccccc3)[C@]3(O)C[C@H](OC(=O)[C@H](O)[C@@H](NC(=O)c4ccccc4)c4ccccc4)C(C)=C1C3(C)C)[C@]1(OC(C)=O)CO[C@@H]1C[C@@H]2O [taxol] | increases acetylation levels | – |
| Dolastatin-10 | – | induces tubulin rings by curving individual protofilaments |
